# From a melting point compilation (Tetko et al.)
row,melting point [°C],SMILES
1,187 to 189,Cc1cc(C)n(CC(=O)O)n1
2,41 to 43,CC1CNc2ccccc2S1 (centres undefined)
3,180 to 183,O=C(CC1SC(N2CCCC2)=NC1=O)Nc1ccc(C(=O)O)cc1 (centres undefined)
4,125 to 127,O=C(O)c1ccccc1SCCO
5,174 to 176,CS(=O)(=O)NCC(=O)O
6,160 to 162,O=C(O)CCn1c(=O)oc2cc(Cl)ccc21
7,195 to 197,O=C(O)c1ccc(Cl)c(S(=O)(=O)N2CCc3ccccc32)c1
8,71 to 73,O=[N+]([O-])c1cc(I)ccc1Cl
9,103 to 105,COC(=O)C1CCN(C(=O)c2ccc(Cl)c(Cl)c2)CC1
10,84 to 86,CC(C)c1ccccc1OCCC(=O)O
11,94 to 96,O=C(O)c1ncoc1C(F)(F)F
12,99 to 101,NC(=O)C1(c2cccc(Cl)c2)CC1
13,108 to 110,C#CCNC(=O)CC#N
14,257 to 259,Cn1c(N)nccc1=O
15,211 to 213,O=C1CC(C(=O)O)c2ccccc2N1 (centres undefined)
16,156 to 158,O=C(c1ccccc1)c1ccc(OC(F)F)cc1
17,35 to 37,O=C(Nc1cccc(Cl)c1)OCC(F)(F)F
18,159 to 161,Cc1ccc(-c2cnc(CCC(=O)O)o2)cc1C
19,239 to 241,Cc1nc(COc2ccc(Cl)cc2)sc1C(=O)O
20,86 to 88,CC(C)Nc1nc(COc2ccccc2)no1
21,105 to 107,O=C1CCCCC1N1CCS(=O)(=O)CC1 (centres undefined)
22,90 to 100,ClCc1nnc(-c2ccccc2)o1
23,223 to 225,Cc1cc(=O)[nH][nH]1
24,152 to 154,NC(=O)c1ccc(N)c(F)c1

row,melting point [°C],SMILES
1,199 to 201,Cc1cc(C(=O)O)ccc1NC(=O)c1cccs1
2,261 to 263,NN=C1C(=O)Nc2c(Cl)cc(Cl)cc21
3,29 to 31,CCC(=O)c1cc(F)cc(Br)c1
4,219 to 221,CC1CN(c2ccc(C(=O)O)cn2)CC(C)O1 (centres undefined)
5,48 to 50,Cc1cc(S(=O)(=O)Cl)ccc1[N+](=O)[O-]
6,180 to 182,CC1(c2ccc3c(c2)OCCO3)NC(=O)NC1=O (centres undefined)
7,111 to 113,CN(C)c1ccc(Br)c(S(=O)(=O)Cl)c1
8,110 to 112,CN(C(=O)CCl)C1(c2ccccc2Cl)CCCCC1=O (centres undefined)
9,96 to 98,NS(=O)(=O)C1CCCOC1 (centres undefined)
10,165 to 167,CC(N)c1ccc(NC(=O)Nc2ccccc2)cc1 (centres undefined)
11,225 to 227,COc1ccc(C(=O)O)cc1-c1ccnn1C
12,187 to 189,COc1cc(OC)c(C(=O)NO)cc1OC
13,34 to 36,NCC(O)C1CC1 (centres undefined)
14,111 to 113,CNS(=O)(=O)c1ccc(CN)cc1
15,127 to 129,Cc1cc(S(=O)(=O)Cl)ccc1OCC(=O)O
16,172 to 174,CNC(=O)c1cnc(C)s1
17,158 to 160,O=S(=O)(Nc1nc2ccccc2nc1Cl)c1cccc(Cl)c1
18,71 to 73,Cc1nn(-c2ccccc2)c(N2CCCC2)c1C=O
19,153 to 155,NNC(=O)c1cccc(S(=O)(=O)N2CCCC2)c1
20,99 to 101,CC(C)c1ccc(C(=O)O)c(C(C)C)c1
21,376 to 378,Sc1nc2cc(Cl)cc(Cl)c2[nH]1
22,143 to 145,O=S(=O)(c1ccc(Cl)nc1)N1CCOCC1
23,103 to 105,Cc1cc(Br)cc(C)c1N1CCCC1=O
24,50 to 52,COc1c(F)cc(Br)cc1S(=O)(=O)Cl

row,melting point [°C],SMILES
1,111 to 113,O=Cc1cnn(C2CCS(=O)(=O)C2)c1 (centres undefined)
2,132 to 134,CC(C)(C)C(=O)Nc1ccc(Cl)c(C(F)(F)F)c1
3,206 to 208,CC(=O)NC(Cc1c[nH]c2ccc(Br)cc12)C(=O)O (centres undefined)
4,209 to 211,O=C(O)c1ccc(-n2cc(Br)cn2)nn1
5,136 to 138,ON=Cc1csnn1
6,104 to 106,O=C(NCc1ccc2c(c1)OCO2)C(Cl)c1ccccc1 (centres undefined)
7,180 to 182,Cc1ccc(S(=O)(=O)NC(C)(C)C)cc1C(=O)O
8,87 to 89,ClCc1nc(-c2cccnc2)no1
9,102 to 104,CCN(CC)c1ccc(S(N)(=O)=O)cc1N
10,191 to 193,NC(=S)c1ncc(N)s1
11,82 to 84,CCc1ccc2c(CC(=O)O)coc2c1
12,68 to 70,Clc1cnc2nc(Cl)oc2c1
13,137 to 139,Cc1cc(F)cc2c(Cl)c(C#N)cnc12
14,119 to 121,CC(C)(C)c1ncc(N)cn1
15,152 to 154,Nc1cnn(-c2ccncc2)c1
16,123 to 125,O=C(CCl)NCc1ccc(COc2ccccc2)cc1
17,210 to 212,O=Cc1c[nH]nc1-c1ccc2c(c1)OCCO2
18,164 to 166,O=C(CCl)n1nc2ccccn2c1=O
19,100 to 102,NNC(=O)CSc1ccc(Cl)cc1
20,144 to 146,N#CCSc1cccc(C(=O)O)c1
21,228 to 230,CCC(=O)N1CCc2cc(C(=O)O)ccc21
22,159 to 161,Cc1cccc2c(CC(=O)O)c(-c3ccccc3)[nH]c12
23,209 to 211,Nc1ccc2c(N)n[nH]c2c1
24,195 to 197,CCC(=O)N(c1nnc(S)s1)C1CC1

row,melting point [°C],SMILES
1,108 to 110,Cc1ccccc1CNC(=O)C(C)Cl (centres undefined)
2,107 to 109,CC(Cl)C(=O)Nc1ccc(Cl)cc1C(F)(F)F (centres undefined)
3,197 to 199,CCOC(=O)c1c(C)oc2nc(CCl)[nH]c(=O)c12
4,113 to 115,COc1ccccc1C(N)=S
5,120 to 124,CCn1c(=O)[nH]c2ccccc21
6,235 to 237,Cc1nc(-c2cccc(N)c2)[nH]c1C
7,189 to 191,O=C(O)c1cccc(C(O)C(=O)O)c1 (centres undefined)
8,127 to 129,CCOc1ccc(C(=O)N(C)C)cc1N
9,197 to 199,ON=Cc1ccccc1OCc1cn2ccccc2n1
10,127 to 129,CC(=O)N(c1ccc(F)cc1)c1nc(CCl)cs1
11,156 to 158,CC(NC(=O)CC1CCCCC1)C(=O)O (centres undefined)
12,143 to 145,Clc1nc2cccnc2nc1Cl
13,30 to 32,Nc1nc2c(s1)CCCC2
14,90 to 92,N#CC1(c2cccc(Br)c2)CCOCC1
15,44 to 46,CN(C)C(=O)c1ccc(F)nc1
16,196 to 198,CC(C)(C)OC(=O)NCc1nnc(-c2cccnc2)[nH]1
17,206 to 208,O=C(O)c1cn(Cc2cccnc2)nn1
18,71 to 73,Clc1cc(SCc2ccccc2)ncn1
19,69 to 71,Cc1nn(C2CCCCC2)c(C)c1N
20,209 to 211,Cc1cc(C)c2c(n1)NCC(=O)N2
21,119 to 121,Nc1cc(S(=O)(=O)NC2CC2)ccc1O
22,72 to 74,CN1CCN(c2cc(CN)ccn2)CC1
23,194 to 196,O=C(O)c1nn(-c2c(Cl)cc(Cl)cc2Cl)cc1O
24,115 to 117,COC(=O)C(NC(c1ccccc1)(c1ccccc1)c1ccccc1)C(C)O (centres undefined)

row,melting point [°C],SMILES
1,149 to 151,CN(CC(N)=S)C(=O)OC(C)(C)C
2,155 to 157,OCc1ccnc(-n2ccnc2)c1
3,141 to 143,O=C(O)COc1ccc(C(=O)c2ccccc2Cl)cc1
4,58 to 60,Cn1cccc1C(=O)N1CCNCC1
5,158 to 160,CCCc1[nH]nc(C(=O)O)c1[N+](=O)[O-]
6,83 to 85,O=C(CBr)c1cccc(N2CCCC2=O)c1
7,65 to 67,O=C(c1cccc(F)c1)c1cccc(Br)c1
8,222 to 224,N#Cc1cnn2cc(C=O)cnc12
9,299 to 301,O=C(O)c1ccc(-c2ccco2)[nH]c1=O
10,160 to 162,Nc1cc2c(cc1C(=O)O)OCCCO2
11,118 to 120,CC(C)n1nnnc1-c1ccc(N)cc1F
12,140 to 142,N#Cc1ccc(I)cc1C#N
13,110 to 112,Cc1c(C(=O)O)nnn1-c1ccccc1
14,173 to 175,C=CCOc1ccc(C(=O)O)cc1OC
15,92 to 94,CCNc1nc(C(=O)OCC)cs1
16,54 to 56,COCCOc1ccc(F)cc1[N+](=O)[O-]
17,174 to 176,N#Cc1ccc(N2CCC(C(=O)O)CC2)nc1
18,193 to 195,Cc1cc(C(=O)O)cc(S(=O)(=O)Cl)c1F
19,118 to 120,CCOCc1nnc(N)o1
20,74 to 76,COC(=O)Cn1ccc(N)n1
21,337 to 339,Cc1[nH]nc2ncc(C(=O)O)cc12
22,91 to 93,O=C(Nc1ccc(S(=O)(=O)Cl)cc1[N+](=O)[O-])C(F)(F)F
23,61 to 63,NCc1cccc(NC(=O)C2CCC2)c1
24,304 to 306,O=c1[nH]c2ccc(S(=O)(=O)Cl)cc2[nH]c1=O

row,melting point [°C],SMILES
1,86 to 90,O=C(O)CCCCCNS(=O)(=O)c1ccc2c(c1)OCCO2
2,128 to 130,O=C(CCl)NC(=O)Nc1ccc2c(c1)OCCO2
3,97 to 99,Cc1ccc(-c2nc(CCl)co2)cc1
4,104 to 106,CCC(=O)c1ccc(N(C)C)cc1
5,33 to 35,Nc1ccnn1Cc1ccsc1
6,109 to 111,C1CCC(c2nnn[nH]2)CC1
7,154 to 156,O=C(CCl)NC(=O)NCC(F)(F)F
8,144 to 146,COC(=O)COc1cc(C(=O)O)ccc1OC
9,199 to 201,O=C1NS(=O)(=O)c2ncccc21
10,190 to 192,O=C(O)CNC(=O)c1ccc(Cl)c([N+](=O)[O-])c1
11,143 to 145,N#Cc1ccc(Cl)cc1NC1CCOCC1
12,38 to 40,Cc1c(CN)cnn1C
13,299 to 301,O=C(O)c1ccc(-c2nnc(-c3ccccc3)o2)cc1
14,162 to 164,Cc1c(N)cccc1C(=O)N1CCCC1
15,179 to 181,O=C(c1[nH]nc2ccccc12)N1CCNCC1
16,145 to 147,N#Cc1ccc(NC(=O)CC2CCCC2)cc1
17,159 to 161,COc1cc(S(=O)(=O)Cl)c(Cl)cc1C(=O)O
18,80 to 82,COc1ccc(S(=O)(=O)Cl)cc1Cl
19,120 to 122,COc1ccc2c(c1)CC(C(=O)O)CO2 (centres undefined)
20,249 to 251,CN1C(=O)c2ccc(C(=O)O)cc2S1(=O)=O
21,159 to 161,CC(C)N(C(C)C)S(=O)(=O)c1ccc(NN)nc1
22,186 to 188,Cc1nn(C)c(C)c1O

row,SMILES,melting point [°C]
1,N#Cc1cc(CBr)ccc1F,44 to 46
2,Cc1cc(NC(=O)CCl)on1,106 to 108
